{
  "source": "patent US9096832B2",
  "about": "“Differentiation of human embryonic stem cells” (LifeScan, Inc., priority 2007, dated 2015)",
  "key": {"[1]": {"system": "H7P44 and H9P46 embryonic stem cells", "test": "Definitive endoderm on […]: role of Wnt ligands (FACS CXCR4, real-time PCR)", "type": "cell-based, human", "description": "In some of the cultures 20 ng/ml Wnt-3a (Catalog#1324-WN-002, R&D Systems, MN), 20 ng/ml Wnt-5a (Catalog#654-WN-010, R&D Systems, MN), 25 ng/ml Wnt-7a (Catalog#3008-WN-025, R&D Systems, MN), or 25 ng/ml Wnt-5b (Catalog#3006-WN-025, R&D Systems, MN) was added throughout the five day treatment. FIG. 24 depicts phase contrast images of H9P46 definitive endoderm culture in the presence of high concentration of (a) AA or (b) AA+20 ng/ml Wnt-3a. FIG. 25 depicts the expression of CXCR4 by FACS at day 5 for H7P44, and H9P46 lines cultured on […]™ (1:30 dilution) and exposed to the DE protocol+Wnt-3a (FIG. 25, panels b and d) and −Wnt-3a (FIG. 25, panels a and c)."}, "[2]": {"system": "H9P46-P48 embryonic stem cells", "test": "Definitive endoderm on […]: effect of GSK-3B inhibitor IX (FACS CXCR4, PCR)", "type": "cell-based, human", "details": "20 ng/ml Wnt-3a or 100-1000 nM GSK-3B inhibitor, day 5", "description": "In order to confirm that the effect of Wnt-3a was through the Wnt pathway, a GSK-3 inhibitor was used to activate the downstream targets of Wnt, such as beta catenin. […] FIG. 29, panel a depicts the expression of CXCR4 by FACS at day 5 in the absence of Wnt-3a or GSK-3B inhibitor, b) +20 ng/ml Wnt-3a, c) +1000 nM GSK-3B inhibitor IX, d) +500 nM GSK-3B inhibitor IX, e) +100 nM GSK-3B inhibitor IX, f) +10 nM GSK-3B inhibitor IX, g) +100 nM GSK-3B inhibitor IX for days 1-2, and h) +10 nM GSK-3B inhibitor IX for days 1-2."}, "[3]": {"system": "human embryonic stem cell line H1 at passage 55", "test": "Definitive endoderm on human serum coated plates (real-time PCR)", "type": "cell-based", "details": "with activin A, vs activin A only", "description": "Cultures of the human embryonic stem cell line H1 at passage 55 were grown and differentiated on human serum (Sigma, #H1388, MO) coated plates. 0.5 ml of human serum was added to each well of 6 well tissue culture treated dish, incubated for 1 hr at room temperature, and aspirated before adding human embryonic stem cells. […] These findings parallel our findings for human embryonic stem cells cultured on […]™ or human fibronectin coated plates."}, "[4]": {"system": "human embryonic stem cell line H1", "test": "FACS of protein markers after activin A treatment (Table IIC)", "type": "cell-based", "details": "5-day AA treatment", "description": "(§1) The level of expression of definitive endoderm markers was examined by PCR (FIG. 1), FACS (results summarized in Table II), and immunohistochemistry (FIG. 2).\nCXCR4 positive cells were also highly positive for C-kit, EPCAM, CD99, and negative for CD9. The expression pattern for these markers was consistent among all three hES cell lines examined (Table IIB for H7 and Table IIC for H1). […] In parallel, almost 100% of the differentiated cells were […] (FIG. 2).\nAdhered cells were removed from culture plates by five-minute incubation with TrypLE™ Express solution (Invitrogen, CA). Released cells were resuspended in human embryonic stem cell culture medium and recovered by centrifugation, followed by washing and resuspending the cells in a staining buffer consisting of 2% BSA, 0.05% sodium azide in PBS (Sigma, MO). As appropriate, the cells were Fc-receptor blocked for 15 minutes using a 0.1% γ-globulin (Sigma) solution. […] Controls included appropriate isotype matched antibodies, unstained cells, and cells stained only with secondary conjugated antibody. All incubations with antibodies were performed for 30 mins at 4° C. after which the cells were washed with the staining buffer. Samples that were stained with unconjugated primary antibodies were incubated for an additional 30 mins at 4° C. with secondary conjugated PE or —APC labeled antibodies. See Table I for a list of secondary antibodies used. Washed cells were pelleted and resuspended in the staining buffer, and the cell surface molecules were identified using a FACS Array (BD Biosciences) instrument, collecting at least 10,000 events."}, "[5]": {"system": "human embryonic stem cell line H9", "test": "PCR of endoderm, extraembryonic, mesoderm and ectoderm markers after activin A treatment on MEFs", "type": "cell-based", "description": "as §1\nCells were harvested at the time points indicated in FIG. 3 and assayed by PCR for the expression of genes shown (FIGS. 3, 4 and 5).\nRNA extraction, purification, and CDNA synthesis: RNA samples were purified by binding to a silica-gel membrane (Rneasy Mini Kit, Qiagen, CA) in the presence of an ethanol-containing, high-salt buffer followed by washing to remove contaminants. The RNA was further purified using a TURBO DNA-free kit (Ambion, INC), and high-quality RNA was then eluted in water. Yield and purity were assessed by A260 and A280 readings on a spectrophotometer. cDNA copies were made from purified RNA using an ABI (ABI, CA) high capacity cDNA archive kit.\nFinal data were expressed relative to a calibrator sample."}, "[6]": {"system": "human embryonic stem cell line H9", "test": "Formation of pancreatic endocrine cells expressing Nkx2.2 (PCR)", "type": "cell-based", "description": "Cells were continuously cultured for another 3 to 5 days in basal medium with retinoic acid at 1 μM, alone or with bFGF. RNA samples were harvested from cells at various time points along this process to help evaluate the directed differentiation of the cells. Furthermore, culture medium and factors were regularly removed and replenished throughout the differentiation protocol."}, "[7]": {"system": "H9P49 and H1P46 embryonic stem cells", "test": "Definitive endoderm on MATRIGEL: effective dose of activin A with GSK-3B inhibitor or Wnt-3a", "type": "cell-based, human", "description": "FIG. 31 panels a-d is for H9P49 cells and panels e-f is for H1P46 cells."}, "[8]": {"system": "human embryonic stem cell line H9", "test": "CXCR4 expression by FACS, Activin A +/- Wnt3a, Example 34", "type": "cell-based", "details": "end of the 5th day, H9 passage 54", "description": "The effect that Wnt-3a treatment has on cytokine expression was analyzed using a protein array. Cells of the human embryonic stem cell line H9 were cultured according to the methods described in Example 15. At passage 54, cells were differentiated in the presence of 100 ng/mlActivinA+/−10 ng/mlWnt3a for 2 days in 0.5% FBS DMEM/F12.\nAt the end of the 5th day, CXCR4 expression was determined by FACS for each treatment group."}, "[9]": {"system": "human embryonic stem cell line H9", "details": "activin A or retinoic acid alone", "experimental": "Cultures were harvested and samples of mRNA were collected for analysis.\nCells seeded on 0.1% Matrigel (BD) coated dishes were fixed with 4% paraformaldheyde for 20 min at room temperature. Fixed cells were blocked for 1 h at room temperature with PBS/0.1%BSA/10% normal chick serum /0.5% Triton X-100 and then incubated overnight with primary antibodies in PBS/0.1%BSA/10% normal chick serum at 4° C. After three washes in PBS/0.1% BSA, fluorescent secondary antibodies at a 1:100 dilution in PBS were incubated with cells for 1 h at room temperature to allow binding. Control samples included reactions where the primary antibody was omitted or where the primary antibody was replaced with corresponding matched negative control immunoglobulins at the same concentration as the primary antibodies. […]\nReal-time PCR amplification and quantitative analysis: Unless otherwise stated, all reagents were purchased from Applied Biosystems. […] For each primer/probe set, a Ct value was determined as the cycle number at which the fluorescence intensity reached a specific value in the middle of the exponential region of amplification. Relative gene expression levels were calculated using the comparative Ct method. […] The normalized amount of target was calculated as 2-ΔCt, assuming amplification to be 100% efficiency. […]"}},
  "data": [
    {"substance": "Wnt-3a", "values": [
      {"measurement": "expression of CXCR4 (CD184) by FACS", "setting": "[1]; 20 ng/ml Wnt-3a in DE cultures, day 5, H7P44 and H9P46", "value": "robust expression"},
      {"measurement": "expression of definitive endoderm markers (real-time PCR)", "setting": "[1]; low serum+AA+/-Wnt ligands, H7 and H9, five days", "value": "significant up regulation"},
      {"measurement": "number of CXCR4 positive cells", "setting": "[2]", "value": "significantly increased"},
      {"measurement": "expression of definitive endoderm markers", "setting": "[3]", "value": "Robust expression"}
    ]},
    {"substance": "Activin A: activin A (a member of the TGFβ superfamily), R&D Systems; 'w/o wnt' in Table VII = 100 ng/ml Activin A without Wnt3a", "values": [
      {"measurement": "CXCR4+", "setting": "[4]", "value": 92.78, "unit": "%"},
      {"measurement": "CXCR4+/C-kit+", "setting": "[4]", "value": 92.90, "unit": "%"},
      {"measurement": "CXCR4+/CD9+", "setting": "[4]", "value": 7.03, "unit": "%"},
      {"measurement": "CXCR4+/CD99+", "setting": "[4]", "value": 88.78, "unit": "%"},
      {"measurement": "CXCR4+/EPCAM", "setting": "[4]", "value": 87.99, "unit": "%"},
      {"measurement": "Oct4 expression", "setting": "[5]; Activin A 100 ng/ml up to seven days", "value": "no significant decrease"},
      {"measurement": "Pdx1 gene expression", "setting": "[5]; Activin A 100 ng/ml up to seven days, 0% to 2% serum", "value": "no Pdx1 gene expression was observed"},
      {"measurement": "expression of Brachyury", "setting": "[5]; H9, 100 ng/ml activin A", "value": "decreased"},
      {"measurement": "expression of neuronal marker Zic1", "setting": "[5]; H9, 100 ng/ml activin A", "value": "no effect"},
      {"measurement": "expression of extraembryonic endoderm markers Sox7 and AFP", "setting": "[5]; H9, 100 ng/ml activin A, 1-7 days", "value": "time-dependent decrease"},
      {"measurement": "anterior endoderm markers Cerberus, Otx-1 and Hex genes", "setting": "[5]; H9, 100 ng/ml activin A, three and five days", "value": "significant up regulation"},
      {"measurement": "expression of CXCR4, GATA4, HNF-3beta, Mixl1 and Sox-17 mRNA", "setting": "[5]; H9, 100 ng/ml activin A, two, five and eight days", "value": "time-dependent increase"},
      {"measurement": "increase of Nkx2.2 expression compared to samples without activin A", "setting": "[6]; 50 ng/ml activin A with 50 ng/ml basic FGF and 1 μM Retinoic Acid", "value": "about 35 fold"},
      {"measurement": "Pdx1 expression", "setting": "[6]; activin A for the first three days of culture", "value": "maintained Pdx1 expression at a level similar to samples containing no activin A"},
      {"measurement": "expression of definitive endoderm markers", "setting": "[7]; 50 ng/ml of AA+20 ng/ml of Wnt-3A or 100 nM GSK-3B inhibitor IX", "value": "robust expression"},
      {"measurement": "cell fate at lower doses of activin A", "setting": "[7]; lower doses of activin A", "value": "formation of extraembryonic endoderm"},
      {"measurement": "cells expressing CXCR4 (FACS)", "setting": "[8]", "value": 1, "unit": "%"},
      {"measurement": "expression of Pdx1", "setting": "[9]", "value": "did not induce"}
    ]}
  ]
}
